Experimental findings from US12139488B2, “Pyrido[3,2-d]pyrimidine compounds uses thereof for treating a proliferative disease” (Universite de Montreal, priority 2021, dated 2024) are described below.

Where two headings read alike, the source gives them in different places. Where only a bound is given, the exact number is not on record here.

The IC50 is the concentration that inhibits the measured activity by half. A lower IC50 goes with greater potency. Usually EC50 stands for the concentration at which the effect is half-maximal.

Format in all cases: cell-based, human
Test [1] concerns pERK in Lovo cells (KRAS-G13D). Kind of test: Phospho-ERK inhibition (AlphaLISA), Lovo. To be noted: for Lovo pERK % Ymin: value in parentheses. Here is the method:
(§1) All cancer cell lines (A375, A101D, A2058, RKO, HT29 SK-MEL 30, IPC298, HepG2, HCT-116, Lovo, SWV620, SW480, NCI-H358, NCI-H2122, Calu-6, NCIH2087, NCIH1755, NCIH1666 and Mewo) were obtained from ATCC and cultured in RPMI-1640 medium (Gibco) supplemented with 5% heat inactivated fetal bovine serum (FBS, Wisent) at 37° C. under 5% CO2. Cells were maintained in T175 flasks (Greiner). They were passaged by removing the culture medium, washing once in 10 mL of room temperature Phosphate Buffered Saline (PBS; Wisent) and incubating at 37° C. with 2 mL of 0.05% Trypsin (Thermo-Fisher). Trypsin was then inactivated by adding complete growth medium and the cells were then replated in a T175 culture dish at the appropriate dilution. All cell lines were routinely tested for mycoplasma contamination. Tissue type and mutational status of each cell line can be found in Table B.
(§2) AlphaLISA® SureFire® Ultra™ p-ERK 1/2 (Thr202/Tyr204) analysis was conducted on cells plated in 100 μL of complete RPMI-1640 growth medium in 96-well flat-bottomed transparent dishes (Costar) at a density indicated in Table C. Cells were maintained overnight at 37° C. under 5% CO2 before treatment with compounds' dilution series for one hour. The cell density in cells/cm^2 corresponds to cell number divided by the area of one well of a 96-well plate ([…]).
(§3) In a dilution series 100 μL/well of test substance dilution prepared in complete RPMI-1640 growth media was added to the cells. The dilution series is selected so that ten concentrations cover a range from 10 μM to 0.33 nM. If necessary the initial concentration of 10 μM is increased to 100 μM or lowered to 1 μM (as in the case of A375 and H1666 cells, which are generally more sensitive to the compounds) and further dilution is carried out accordingly. The final concentration of DMSO in the assay is set at 0.5%.
(§4) After treatment, media was removed and cells were lysed in 50 μL of 1× AlphaScreen Ultra Lysis Buffer (Perkin Elmer). The AlphaLISA® SureFire® Ultra™ p-ERK 1/2 (Thr202/Tyr2O4) (PerkinElmer) reactions were performed with 5 μL of cell lysate according to the manufacturer's specifications in 384-well proxyplates (Perkin Elmer) followed by overnight incubation of the reactions at room temperature in a humidified chamber. After completion of the reactions, the signals were recorded on an EnVision plate reader (Perkin Elmer) using built in AlphaLISA® settings.
(§5) The effect of each compound dilution on the pERK signal was expressed in % inhibition and calculated as follows. An internal 100% inhibition control ([…] trametinib, cat #HY-10999; MedChem Express; CAS #871700-17-3) was included in each plate and used as a measure of pERK background. First, the value obtained for trametinib was subtracted from each data point. The average of DMSO (vehicle) controls (set as 0% inhibition) was established and used to calculate % inhibition: % inhibition=100*(1-((pERK signalcompound)/(pERK signalDMSO)))
(§6) The ability of each compound to inhibit pERK signal was expressed as an IC50 value obtained by plotting the inhibition values for each data point of a dilution series and fitting the obtained curves using a log(agonist) versus response-variable slope (four parameters) function using GraphPadPrism (V7.0) or Dotmatics Screening Ultra platform.
(§7) When present, paradoxical pERK induction is inferred from the negative % inhibition values observed in the pERK IC50 curves of a compound.

Test [2] has as its system pERK in HepG2 cells (NRAS-Q61L). The test is described as follows: Phospho-ERK inhibition (AlphaLISA), HepG2. Conditions: for IC50: HepG2; for HepG2 pERK % Ymin: HepG2, value in parentheses. The method, then:
as §1, §2, §3, §4, §5, §6, §7
In general terms: Alpha assays give light when donor and acceptor beads are brought close together.

In test [3] the test system is Lovo cells (KRAS-G13D). Kind of test: Proliferation inhibition (CellTiter-Glo), Lovo. Conditions: 3 days, read-out: Lovo Prolif. EC50. The method, then:
as §1
(§8) CellTiter-Glo® viability analysis was conducted on cells plated in 100 μL of complete RPMI-1640 growth medium in 96-well flat-bottomed white opaque plates (Greiner or Croning) at a density indicated in Table E (for each CCL, number of cells plated per well of a 96-well plate to perform the CellTiter-Glo® cell viability assay). The cell density in cells/cm^2 would correspond to cell number divided by the area of one well of a 96-well plate (0.32 cm^2). […]
(§9) After 3 days of incubation, the growth media were removed by aspiration and 60 μL of diluted CellTiter-Glo® reagent (10 μL CellTiter-Glo® reagent+50 μL of PBS) was added to each well. […] Luminescence signals were then acquired on a Synergy Neo2 plate reader (Biotek).
(§10) The effect of each compound dilution on the proliferation of cancer cell lines was expressed in % inhibition and calculated as follows. […]
(§11) The ability of each compound to inhibit proliferation was expressed as a EC50 value obtained by plotting the effect values for each data point of a dilution series and fitting the obtained curves using a log(agonist) versus response-variable slope (four parameters) function using GraphPadPrism (V7.0) or Dotmatics Screening Ultra platform.

The subject of test [4] is pERK in HCT-116 cells (KRAS G13D). The test is described as follows: Phospho-ERK inhibition (AlphaLISA SureFire Ultra p-ERK 1/2), HCT116. To be noted: for HCT116 pERK % Ymin: value in parentheses. The method in brief: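 p-ERK1/2 (Thr202/Tyr204) in lysates measured by AlphaLISA after 1 h compound exposure of overnight-plated cells (RPMI-1640, 5% FBS, 0.5% DMSO, ten concentrations, usually from 10 μM). Background from a trametinib control subtracted, inhibition normalised to vehicle, and IC50 fitted with a variable-slope four-parameter model.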

Test [5] deals with SW620 cells (KRAS-G12V). Kind of test: Proliferation inhibition (CellTiter-Glo), SW620. To be noted: SW620, 3 days, read-out: SW620 Prolif. EC50. Here is the method:
as §1, §8, §9, §10, §11
On the technique in general: ATP-based viability assays read luminescence as a measure of living cells.

Test [6] relates to A375 cells (BRAF V600E). Kind of test: Proliferation inhibition (CellTiter-Glo), A375. Conditions: A375, 3 days, read-out: A375 Prolif. EC50. Here is the method: as §1, §8, §9, §10, §11

As to `CC1(O)CCN(c2cccc3c2ncn3-c2ccc3ncnc(Nc4c(F)ccc(NS(=O)(=O)c5cccc(Cl)c5Cl)c4F)c3n2)CC1` [Example 524], the IC50 is 30 to 300 nM in test [1] (Lovo); 30 to 300 nM in test [2]; 30 to 300 nM in test [4] (HCT116, Table D); less than 500 nM in test [4] (HCT116 cells, class symbol). Besides, the “Lovo pERK % Ymin” value in test [1] (Lovo) was −5%. Moreover, in test [2], the “HepG2 pERK % Ymin” value is on record as 2%. For the same compound, the EC50 in test [3] was less than 30 nM; in test [5], 300 to 3000 nM; in test [6], less than 30 nM. The “HCT116 pERK % Ymin” value in test [4] (HCT116, Table D) was −3%.

For the compound `Cc1ccc2c(Nc3cccc(Cl)c3F)nccc2c1NC(=O)c1csc2c(N)ncnc12` [Belvarafenib, reference compound], the half-inhibitory concentration (IC50) in test [1] (Homo sapiens, LoVo) was less than 30 nM; in test [2] (Homo sapiens), 30 to 300 nM; in test [4] (Homo sapiens, HCT-116, HCT116, Table D), 30 to 300 nM. In addition, the “Lovo pERK % Ymin” value in test [1] (Lovo) was −12%. Further, the “HepG2 pERK % Ymin” value in test [2] is −36%. For the same compound, the EC50 in test [3] (Homo sapiens, 72 h) was less than 30 nM; in test [5] (Homo sapiens, SW-620, 72 h) it was 300 to 3000 nM; in test [6] (Homo sapiens, A-375, 72 h), less than 30 nM. In test [4] (HCT116, Table D), the “HCT116 pERK % Ymin” value is −46%.

On to `Nc1cccc2c1ncn2-c1ccc2ncnc(Nc3c(F)ccc(NS(=O)(=O)c4cccc(Cl)c4Cl)c3F)c2n1` [Example 99], for which the IC50 in test [1] (Lovo) is 30 to 300 nM; in test [2], less than 30 nM; in test [4] (HCT116, Table D), 30 to 300 nM; in test [4] (HCT116 cells, class symbol before the bracket) it was less than 500 nM. The “Lovo pERK % Ymin” value in test [1] (Lovo) is −15%. Besides, in test [2], the “HepG2 pERK % Ymin” value is on record as 7%. Moreover, the EC50 is less than 30 nM in test [3], 300 to 3000 nM in test [5] and less than 30 nM in test [6]. For the same compound, the “HCT116 pERK % Ymin” value in test [4] (HCT116, Table D) is reported as −0.3%. For the same compound, in test [4] (HCT116 cells, Ymin in brackets), the “HCT116 pERK Ymin %” value is listed as −5.4%. Moreover, the “YMIN of pERK IC50 dose response curve (paradoxical induction of pERK signaling)” value in test [4] (RAS-mutant HCT116 cells, FIG. 1) is recorded as greater than −20%.
